“And” between values parts separate entries of the source, which are not always exact repeats. Equal entries are not always repeated.
How the values were obtained:
Homo sapiens [1] = assay: Evaluation of pharmacokinetic parameters for Valproic acid following oral administration of Divalproex Sodium.; type: ADME, organism-based; conditions: in vivo, dosed compound id 431, dosed compound name VALPROATE SALT, tissue Plasma
Homo sapiens [2] = assay: Evaluation of pharmacokinetic parameters for Valproic acid following single oral administration of Divalproex Sodium tablets or capsules.; type: ADME, organism-based; conditions: in vivo, dosed compound id 430, dosed compound name DIVALPROEX SODIUM, regimen Single dose, tissue Plasma

Compound: CCCC(CCC)C(=O)O [VALPROIC ACID]
- CL (Homo sapiens [1]; gender female): 4.7 L/hr/1.73 m2
- t1/2 (Homo sapiens [1]; gender male and female): 12 h and 18 h
- CL (Homo sapiens [1]; gender male): 4.8 L/hr/1.73 m2
- t1/2 (Homo sapiens [1]): 10 to 67 h and 7 to 13 h
- Tmax (Homo sapiens [2]; dietary status Fasting): 3.3 h and 4 h
- Tmax (Homo sapiens [2]; dietary status Fed): 4.8 h and 8 h
- t1/2 (Homo sapiens [2]; dose 250 to 1000 mg): 9 to 16 h

— ChEMBL document CHEMBL3832079, “DailyMed|setid=c8806b45-493a-4373-bce7-736e97f9f876 | DIVALPROEX SODIUM - divalproex sodium tablet, delayed release|REMEDYREPACK INC”
